Source: patent publication US11129861B2, “Methods for treating inflammatory diseases” (OKCHUNDANG CO., LTD., priority 2017, dated 2021)
Marks after values point to notes of the source that are not given here.

How the values were obtained:
[1] = Body weight measurements, antitussive assay; assay type: in vivo, mice; details: 50 mg/kg orally
Procedure: One-hundred thirty two 6-week male SPF/VAF CrljOri:CD1 [ICR] mice (OrientBio, Seungnam, Korea; body weight ranged in 29-32 g upon receipt) were prepared, and eight groups of 10 mice each were selected based on the body weights at 7 days after acclimatization based on the body weights (intact control: 34.30±1.74 g, ranged in 31.8-37.0 g; NH4OH treated mice: 34.17±1.32 g, ranged in 31.0-37.3 g), as follows.
SKOG were suspended in distilled water as 40, 20 and 10 mg/ml concentration, and orally administered in a volume of 10 ml/kg (as equivalence to 400, 200 and 100 mg/kg), once a day for 11 days before NH4OH exposure. In addition, AR and KOG were also suspended in distilled water as 40 mg/ml concentration, and orally administered in a volume of 10 ml/kg (as equivalence to 400, 200 and 100 mg/kg), once a day for 11 days before NH4OH exposure. TB was also dissolved in distilled water as 5 mg/ml concentrations, and also orally administered in a volume of 10 ml/kg (as equivalence to 50 mg/kg), once a day for 11 days before NH4OH exposure. In intact vehicle and NH4OH control mice, distilled water 10 ml/kg was orally administered, instead of AR, KOG, SKOG or TB to provide same restrain stresses, in the present experiment.
Changes of body weight were measured at once a day from 1 day before initial to end of last 11th oral administration of AR, KOG, SKOG or TB using an automatic laboratory animal weighing electronic balance (Precisa Instrument, Dietikon, Switzland). Animals were overnight fasted (about 18 hours, water was not restricted) before initial test substance administration and sacrifice to reduced individual differences from feeding, and also to reduce the individual body weight differences at start of experiment, the body weight gains during 11 days of oral administration of AR, KOG, SKOG or TB were calculated as follow Equation [1], in the current experiment. Body weight gains during 11 days of oral administration of test substances[B−A]=Body weights at last administration[B]−Body weights at first administration[A] Equation [1]

[2] = tested on: xylene topically applied mice; test: Anti-inflammatory assay: ear histopathology; assay type: in vivo; details: 50 mg/kg orally, 11 days; xylene topically applied mice
Procedure: AR, KOG and SKOG were orally administered as same as antitussive and expectorant assays, once a day for 11 days before xylene topical applications. In addition, DEXA-water soluble granules were dissolved indistilled water as 1.5 mg/ml concentrations (0.1 mg/ml based on DEXA itself), and also orally administered in a volume of 10 ml/kg (as equivalence to 1 mg/kg based on DEXA itself), once a day for 11 days before xylene topical applications. In intact vehicle and xylene control mice, distilled water 10 ml/kg was orally administered, instead of AR, KOG, SKOG or DEXA to provide same restrain stresses, in the present experiment.
Acute inflammations were induced by single topical application of 0.03 ml of xylene (Duksan Pure Chemical Co. Ltd., Ansan, Korea) to the anterior surface of the right ear at 1 hour after last 11th test substance administration, as described previously with some modifications. Equal volume of saline was topically applied in intact vehicle mouse ears, instead of xylene, in our experiment.
After ear weight measurement, individual ear samples were fixed in 10% NBF, and crossly trimmed. Then embedded in paraffin, sectioned (3˜4 μm) and stained with Hematoxylin and eosin (H&E) for general histopathology or toluidine blue for mast cells, and after that the histopathological profiles of each sample were observed under light microscope. To more detail changes, mean total, epidermis and dermis thicknesses of the ear anterior surface, numbers of infiltrated inflammatory cells and mast cells on the dermis of ear (cells/mm^2), collagen occupied region percentages on the dermis (%/mm2) were analyzed using a computer assisted image analysis program, according to previously established methods, respectively. The histopathologist was blinds to group distribution when this analysis was made, and at least five repeated measurements in same histological specimens prepared were considered to calculate each mean histomorphometrical value, whenever possible, in this histopathological evaluation.

NH4OH exposured mice [3] = test: Antitussive assay: trachea and lung histopathology; assay type: in vivo; details: 50 mg/kg orally, 11 days
Procedure: SKOG were suspended in distilled water as 40, 20 and 10 mg/ml concentration, and orally administered in a volume of 10 ml/kg (as equivalence to 400, 200 and 100 mg/kg), once a day for 11 days before NH4OH exposure. In addition, AR and KOG were also suspended in distilled water as 40 mg/ml concentration, and orally administered in a volume of 10 ml/kg (as equivalence to 400, 200 and 100 mg/kg), once a day for 11 days before NH4OH exposure. TB was also dissolved in distilled water as 5 mg/ml concentrations, and also orally administered in a volume of 10 ml/kg (as equivalence to 50 mg/kg), once a day for 11 days before NH4OH exposure. In intact vehicle and NH4OH control mice, distilled water 10 ml/kg was orally administered, instead of AR, KOG, SKOG or TB to provide same restrain stresses, in the present experiment. After video image acquirement, some parts of individual lung (left lateral lobes) and trachea (3 mm from thyroid cartilages) were sampled and fixed in 10% neutral buffered formalin (NBF), and crossly trimmed. Then embedded in paraffin, sectioned (3˜4 μm) and stained with Hematoxylin and eosin (H&E) for general histopathology or toluidine blue for mast cells, and after that the histopathological profiles of each sample were observed under light microscope (Model Eclipse 80i, Nikon, Tokyo, Japan). […] The histopathologist was blinds to group distribution when this analysis was made, and at least five repeated measurements in same histological specimens prepared were considered to calculate each mean histomorphometrical value, whenever possible, in this histopathological evaluation (FIG. 4).

NH4OH exposured mice [4] = test: Antitussive assay: NH4OH-induced coughing responses; assay type: in vivo; details: 50 mg/kg orally, 11 days; compared with NH4OH control mice
Procedure: NH4OH treated mice: 34.17±1.32 g, ranged in 31.0-37.3 g), as follows. SKOG were suspended in distilled water as 40, 20 and 10 mg/ml concentration, and orally administered in a volume of 10 ml/kg (as equivalence to 400, 200 and 100 mg/kg), once a day for 11 days before NH4OH exposure. In addition, AR and KOG were also suspended in distilled water as 40 mg/ml concentration, and orally administered in a volume of 10 ml/kg (as equivalence to 400, 200 and 100 mg/kg), once a day for 11 days before NH4OH exposure. TB was also dissolved in distilled water as 5 mg/ml concentrations, and also orally administered in a volume of 10 ml/kg (as equivalence to 50 mg/kg), once a day for 11 days before NH4OH exposure. In intact vehicle and NH4OH control mice, distilled water 10 ml/kg was orally administered, instead of AR, KOG, SKOG or TB to provide same restrain stresses, in the present experiment. Coughing was induced by single inhalation of 25% NH4OH (Sigma-Aldrich, St. […] Individual intact vehicle control mouse was exposured to 0.3 ml of saline contained 1,000 ml glass Erlenmeyer flask for 45 sec, instead of NH4OH, in this experiment. The criteria to define cough in mice is that opening the mouth accompanying sound of coughing, contraction of thoracic and abdomen muscles, and a jerking of the front body.

[5] = compared with NH4OH control mice

In the case of `Cn1cnc2c1c(=O)[nH]c(=O)n2C` [TB, theobromine], the “Body weight gains (g) [B − A]” value ([1]; 11 days, NH4OH exposured mice) is reported as 1.71 ± 0.97 g, the “Body weights (g) at test material administration First [A]” value ([1]; 11 days, NH4OH exposured mice) is reported as 29.23 ± 1.49 g and the “Body weights (g) at test material administration Last [B]” value ([1]; 11 days, NH4OH exposured mice) is reported as 30.94 ± 1.77 g. The “body weight gains during 11 days, change” value [1, 5] was 2.40%, the “Cells Inflammatory (ear dermis)” value [2] was 10.10 ± 10.54^fh Numbers/mm^2 and the “Cells Mast (ear dermis)” value [2] was 61.30 ± 12.65^c Numbers/mm^2. For the same compound, the Collagen fiber [2] was 77.43 ± 12.79^h %/mm^2 of dermis, the “Thickness Dermis (ear)” value [2] was 52.33 ± 13.72^h μm and the “Thickness Epidermis (ear)” value [2] was 8.50 ± 1.65 μm. The “Thickness Total (ear)” value [2] was 99.55 ± 9.57^h μm, the “Cells Inflammatory (trachea)” value (NH4OH exposured mice [3]; NH4OH exposured mice) was 167.40 ± 40.26^hi Numbers/mm^2 and the “Cells Mast (trachea)” value (NH4OH exposured mice [3]; NH4OH exposured mice) was 14.30 ± 4.60^hi Numbers/mm^2. For the same compound, the “Diameter of lumen (trachea)” value (NH4OH exposured mice [3]; NH4OH exposured mice) was 860.11 ± 100.75^ac μm, the “Thickness Epithelium (trachea)” value (NH4OH exposured mice [3]; NH4OH exposured mice) was 24.21 ± 4.36^hi μm and the “Thickness Submucosa (trachea)” value (NH4OH exposured mice [3]; NH4OH exposured mice) was 47.31 ± 11.39^hi μm. The “Thickness Total wall (trachea)” value (NH4OH exposured mice [3]; NH4OH exposured mice) was 191.23 ± 10.24^hi μm, the Alveolar surface area (NH4OH exposured mice [3]; NH4OH exposured mice, lung) was 51.13 ± 5.95^ac % and the Septum thickness (NH4OH exposured mice [3]; NH4OH exposured mice, lung) was 30.53 ± 10.06^gh μm. The “inflammatory cells (alveolar septum)” value (NH4OH exposured mice [3]; NH4OH exposured mice, lung) was 492.00 ± 114.18^gh numbers/mm^2, the “Mean ASA, change” value (NH4OH exposured mice [3]; [5]) was 65.26% and the “Mean diameters of trachea lumen, change” value (NH4OH exposured mice [3]; [5]) was 30.60%. For the same compound, the “Mean numbers of infiltrated inflammatory cells on the alveolar septum, change” value (NH4OH exposured mice [3]; [5]) was −73.92%, the “Mean numbers of infiltrated inflammatory cells on the trachea, change” value (NH4OH exposured mice [3]; [5]) was −62.74% and the “Mean numbers of infiltrated mast cells on the trachea, change” value (NH4OH exposured mice [3]; [5]) was −63.05%. The “Mean thicknesses of alveolar septum, change” value (NH4OH exposured mice [3]; [5]) was −57.84%, the “Mean thicknesses of trachea epithelium, change” value (NH4OH exposured mice [3]; [5]) was −35.48% and the “Mean thicknesses of trachea submucosa, change” value (NH4OH exposured mice [3]; [5]) was −47.27%. For the same compound, the “Mean thicknesses of trachea wall, change” value (NH4OH exposured mice [3]; [5]) was −13.23% and the “Mean numbers of coughing responses during 6 min after 45 sec exposure of NH4OH, change” value (NH4OH exposured mice [4]) was −59.04%.
